The text below walks through data of patent publication US12679855B2, “Inhibitors of the enzyme enolase for precision oncology” (Board of Regents, The University of Texas System, priority 2019, dated 2026).

Entries after “also recorded” stand apart in the source; their conditions may differ. Where two headings read alike, the source gives them in different places.

In data set [1] the test system is D423 (ENO1-deleted) glioma cells. Briefly: Cell proliferation assay (crystal violet) in ENO1-deleted glioma cells. It counts as cell-based. Conditions: for IC50: Glioma cell; for selectivity for ENO1-deleted cells: versus ENO1-rescued (D423 ENO1) and ENO1-intact (LN319) glioma cells. The protocol: Cell culture experiments. Cell culture experiments were conducted using the D423-MG cell line. 1p36 homozygous deletion in D423 includes the genes from CAMTAJ to SLC25A33; this includes ENO1. Isogenic ENO1 ectopically rescued lines were described previously (pCMV ENO1 5X) (Muller et al., 2012, which is incorporated by reference herein). An ENO1-intact cell line (LN319) was used as a control for sensitivity to Enolase inhibitors. Cells were routinely cultured in Dulbecco's modified Eagle's medium supplemented with 10% fetal bovine serum.
Cell proliferation assay. Cell Proliferation was determined by crystal violet staining, as previously described (Leonard et al., 2016 and Satani et al., 2016). The cell lines used were D423 (ENO1-deleted), D423 ENO1 (overexpressing ENO1) and LN319 (control). Glioma cells were seeded in 96-well plates and treated with varying concentrations of the inhibitors described above for 7 days. Cells were then washed with PBS, fixed with 10% formalin and stained with 0.05% crystal violet. Washed and dried plates were dye-extracted using 10% acetic acid, and absorbance was measured at 595 nm using Omegastar Plate Reader (BMG Labtech). To test the efficacy of the synthesized under hypoxic conditions, 1×10^4 cells were plated in 96-well plates, treated with VCY13, VCY15, VCY16, or VCY17 and incubated for 3 days in a hypoxia station (Don Whitley Scientific, Shipley, UK) set at 1% O2 and 5% CO2. Crystal violet staining was then performed as described above.
Additional Biological Data. Pro-drug inhibitor structures and corresponding IC50 values against ENO1-deleted cells are shown below in Table 2. The name and corresponding structures of all synthesized inhibitors are given in left and middle columns of each table. Pro-drug moieties in blue represent a second pro-drug leave group while those in red represent a first pro-drug leave group. Some inhibitors also contain an acetyl-protected hydroxamate, which is also a biologically labile moiety. ENO1-deleted (D423), ENO1-isogenically rescued (D423 ENO1), and ENO1-WT (LN319) cells were treated with either pro-drug inhibitor for 5 days at 21% O2, unless otherwise specified. […] IC50,D423 values at 21% O2 are given in the right columns of each table. Experiments conducted at 1% O2 (hypoxic) or 70% O2 (hyperoxic) conditions are noted, where appropriate.

For data set [2] the following is noted: nitroimidazole in VCY17, nitrofuran in VCY15; cited from earlier work.
Data set [3] is described as follows: Plasma and organ levels after injection of POMHEX in mice. Type of data set: in vivo, mouse. As to conditions: 24 hrs. after a single intravenous injection of 10 mg/kg POMHEX. The protocol: FIGS. 3A-3D show the ex-vivo half-life of POMHEX in biological fluids may limit its clinical utility. (FIG. 3A) Ex-vivo half-life of POMHEX in biological fluids. POMHEX has a half-life of ~30 seconds in mouse plasma. The degradation may be prevented by heat inactivation or de-proteinatization with acetonitrile. […] (FIG. 3B) Plasma concentration of HEX and HemiPOMHEX following a single intravenous injection of POMHEX, as a function of time. Mice were injected IV with 10 mg/kg POMHEX and sacrificed at the indicated time points. Each data point represents a single animal. Note, POMHEX itself was below the detection limit (100 nM) even at the earliest time point. It is believed that this may not be reflective of the physiological state as separation of plasma from hematocrit is required for the measurements, which adds approximately 6 minutes of processing time during which POMHEX may be degraded to HemiPOMHEX. (FIG. 3C) The results of the same experiment but performed with an intraperitoneal injection of POMHEX, at a dose of 40 mg/kg. (FIG. 3D) Quantification of POMHEX and its metabolites in mouse organs 24 hrs. after a single intravenous injection of 10 mg/kg POMHEX.
FIGS. 16A-16C show the ex-vivo half-life of POMHEX in biological fluids limits its clinical utility. […] Lower levels of carboxylesterase in human blood results in a longer half-life of POMHEX. (FIG. 16B) Dramatically higher drug exposure in non-human primates as compared to mice following IV injections of POMHEX. Mice (n=3; pooled) and monkeys (n=3; pooled) were injected IV with POMHEX at 10 mg/kg and 2.5 mg/kg, respectively. […] POMHEX was undetectable (<50 nM) even at the earliest time point, in both monkey and mouse experiments; at 98 nM, POMHEX was detectable 1-minute post-injection, but at no time thereafter. […] HEX and HemiPOMHEX were not measured at concentrations higher than 10 mg/kg due to the hazards associated with the derivatization agent, trimethylsilyl-diazomethane in hexane (TMS-DAM). (FIG. 16C) Schematic of POMHEX in circulation when administered IP or IV in mice. […]

The nature of data set [4]: Plasma levels after IV injection of POMHEX in monkeys. Type of data set: in vivo, monkey. As to conditions: after IV POMHEX, monkey 2.5 mg/kg, mouse 10 mg/kg. The method, then: FIGS. 16A-16C show the ex-vivo half-life of POMHEX in biological fluids limits its clinical utility. […] Lower levels of carboxylesterase in human blood results in a longer half-life of POMHEX. (FIG. 16B) Dramatically higher drug exposure in non-human primates as compared to mice following IV injections of POMHEX. Mice (n=3; pooled) and monkeys (n=3; pooled) were injected IV with POMHEX at 10 mg/kg and 2.5 mg/kg, respectively. […] POMHEX was undetectable (<50 nM) even at the earliest time point, in both monkey and mouse experiments; at 98 nM, POMHEX was detectable 1-minute post-injection, but at no time thereafter. […] HEX and HemiPOMHEX were not measured at concentrations higher than 10 mg/kg due to the hazards associated with the derivatization agent, trimethylsilyl-diazomethane in hexane (TMS-DAM). (FIG. 16C) Schematic of POMHEX in circulation when administered IP or IV in mice. Due to high levels of plasma carboxylesterase, a gradient decrease in POMHEX away from the site of injection is accompanied by a concurrent increase in HemiPOMHEX.

The subject of data set [5] is D502 glioma cell line (ENO1-heterozygously deleted). The data set is described as follows: Enolase inhibitor sensitivity (crystal violet), ENO1-heterozygously deleted D502 cells. It counts as cell-based. Conditions: DMEM 10% FBS, terminal cell density by crystal violet after 7 days. The method, then:
(§1) Enolase inhibitor sensitivity experiments were performed, using DMEM containing 10% FBS cell culture media. IC50 (expressed in nM) were calculated based on terminal cell density measured by crystal violet after 7 days of growth. […] Left table: POMHEX. Middle table: HEX. Right table: Ratio of sensitivity to POMHEX versus HEX for each cell line.
(§2) (FIG. 19A) ENO1-deleted (D423, red), ENO1-isogenically rescued (D423 ENO1, blue), and ENO1-WT (LN319, grey) cells were treated POMHEX in RPMI media under the same experimental conditions used for NCI-60 screening. […] IC50 (expressed in nM) were calculated based on terminal cell density measured by crystal violet.
(§3) Cell proliferation assay.

Data set [6] deals with U343 glioma cell line (ENO1-heterozygously deleted). Briefly: Enolase inhibitor sensitivity (crystal violet), ENO1-heterozygously deleted U343 cells. It counts as cell-based. Conditions: DMEM 10% FBS, terminal cell density by crystal violet after 7 days. The protocol: as §1, §2, §3
Setting [7] is: 120 h, ENO1-deleted (D423) cells, 5 days, 21% O2, read-out: IC50,D423.
Setting [8] is: 120 h, 21% O2, 5 days where stated, read-out: IC50 against D423 (ENO1-deleted) cells.
Where [9] appears, read: D423 cells, 1% O2 (hypoxic), read-out: IC50,D423 at 1% O2.

A word on the IC50: it is the concentration at which inhibition is half-maximal. On to `CC(C)(C)C(=O)OCOP(=O)(NCc1ccc(F)c(F)c1)C1CCCN(O)C1=O` (stereo not shown) [CDP13, ((((3,4-difluorobenzyl)amino)(1-hydroxy-2-oxopiperidin-3-yl)phosphoryl)oxy)methyl pivalate], for which the IC50 in data set [1] (setting [7]) amounted to 221 nM.

`CC(C)(C)C(=O)OCOP(=O)(NCc1ccc(F)cc1)C1CCCN(O)C1=O` (stereo not shown) [VCY19, ((((4-fluorobenzyl)amino)(1-hydroxy-2-oxopiperidin-3-yl)phosphoryl)oxy)methyl pivalate]: the IC50 in data set [1] (setting [7]) was found to be 129 nM. Consider `CC(=O)ON1CCCC(P(=O)(NCc2ccccc2)OCc2ccc([N+](=O)[O-])o2)C1=O` (stereo not shown) [VCY15, 3-((benzylamino)((S-nitrofuran-2-yl)methoxy)phosphoryl)-2-oxopiperidin-1-yl acetate], for which the half-maximal inhibitory concentration (IC50) is 230 nM in data set [1] (setting [8]), 390 nM in data set [1] (setting [7]) and 97 nM in data set [1] (setting [9]). Besides, in data set [1] (taking into account HIF-1α/hypoxia-driven increase in ENO2 expression), the “difference in bioactivation from 21% to 1% O2” value is given as ~ 5 fold. Besides, the “selectivity for ENO1-deleted cells” value in data set [1] is “selective toxicity against ENO1-deleted”. For the same molecule, the “redox potential of the nitroheterocycle” value in data set [2] is on record as −330 mV.

On to `CC(C)(C)C(=O)OCOP(=O)(NCc1ccccn1)C1CCCN(O)C1=O` (stereo not shown) [KY9, (((1-hydroxy-2-oxopiperidin-3-yl)((pyridin-2-ylmethyl)amino)phosphoryl)oxy)methyl pivalate], for which the IC50 in data set [1] (setting [7]) is 96 nM. On the same count and under the same terms, the same measure for `CC(C)(C)C(=O)OCOP(=O)(NCc1c(F)cccc1F)C1CCCN(O)C1=O` (stereo not shown) [CDP19, ((((2,6-difluorobenzyl)amino)(1-hydroxy-2-oxopiperidin-3-yl)phosphoryl)oxy)methyl pivalate]: 112 nM. With `CC(=O)ON1CCCC(P(=O)(NCc2ccccc2)OCCSC(=O)C(C)(C)C)C1=O` (stereo not shown) [VCY13, 3-((benzylamino)(2-(pivaloylthio)ethoxy)phosphoryl)-2-oxopiperidin-1-yl acetate], the concentration for half-maximal inhibition (IC50) in data set [1] (setting [8]) and in data set [1] (setting [7]) was 38 nM each time. Also, in data set [1], the “selectivity for ENO1-deleted cells” value was “selective toxicity against ENO1-deleted; also recorded: dose-dependent selectivity for ENO1-deleted cells”. Take `N#CCCOP(=O)(NCc1ccccc1)C1CCCN(O)C1=O` (stereo not shown) [VCY26]: the IC50 in data set [1] (setting [7]) turned out to be 5000 nM. Turning to `CC(=O)ON1CCCC(P(=O)(NCc2ccccc2)OCc2ccc([N+](=O)[O-])s2)C1=O` (stereo not shown) [VCY16, 3-((benzylamino)((5-nitrothiophen-2-yl)methoxy)phosphoryl)-2-oxopiperidin-1-yl acetate], the half-inhibitory concentration (IC50) in data set [1] (setting [7]) was 234 nM; in data set [1] (setting [9]), 40 nM. For the molecule `CC(C)(C)C(=O)OCOP(=O)(NCC1CCCCC1)C1CCCN(O)C1=O` (stereo not shown) [CDP18, ((((Cyclohexylmethyl)amino)(1-hydroxy-2-oxopiperidin-3-yl)phosphoryl)oxy)methyl pivalate], in data set [1] (D423 cells), the “greater potency compared to benzylamine pro-drug (FLM37)” value is recorded as ~ 3 fold. For the same molecule, the 50% inhibitory concentration (IC50) in data set [1] (setting [8]) and in data set [1] (setting [7]) was 77 nM each time. In the case of `O=C1C(P(=O)(NCc2ccccc2)OCOC(=O)N2CCC(N3CCCCC3)CC2)CCCN1O` (stereo not shown) [CDP9], in data set [1] (setting [7]), the IC50 came to 36000 nM. Still for that read-out and setting: the same measure for `CC(C)(C)C(=O)OCOP(=O)(NCc1ccc(F)cc1F)C1CCCN(O)C1=O` (stereo not shown) [CDP14, ((((2,4-difluorobenzyl)amino)(1-hydroxy-2-oxopiperidin-3-yl)phosphoryl)oxy)methyl pivalate]: 65 nM. With `CC(C)(C)C(=O)OCOP(=O)(O)C1CCCN(O)C1=O` (stereo not shown) [HemiPOMHEX], in data set [3], the “level in mouse organs” value was “below the quantification limit (BQL)”. The “half-life in monkey compared to mouse” value in data set [4] was “longer in monkey”.

As to `CC(C)(C)C(=O)OCOP(=O)(NCC1CC1)C1CCCN(O)C1=O` (stereo not shown) [VCY32, ((((Cyclopropylmethyl)amino)(1-hydroxy-2-oxopiperidin-3-yl)phosphoryl)oxy)methyl pivalate], the IC50 in data set [1] (setting [7]) came out at 9 nM. The “selectivity for ENO1-deleted cells” value in data set [1] is recorded as “selective for ENO1-deleted cells”.

As to `CC(C)(C)C(=O)OCOP(=O)(NCc1cccc(F)c1)C1CCCN(O)C1=O` (stereo not shown) [CDP12, ((((3-fluorobenzyl)amino)(1-hydroxy-2-oxopiperidin-3-yl)phosphoryl)oxy)methyl pivalate], in data set [1] (setting [7]), the IC50 came out at 249 nM. Take `O=C1C(P(=O)(O)O)CCCN1O` (stereo not shown) [HEX]: the values for the concentration for half-maximal inhibition (IC50) in data set [5] and in data set [6] were 28800 nM and 19700 nM, respectively. For the same molecule, the “half-life in monkey compared to mouse” value in data set [4] is on record as “longer in monkey”. `CC(=O)ON1CCCC(P(=O)(NCc2ccc(F)cc2)OCc2ccc([N+](=O)[O-])o2)C1=O` (stereo not shown) [VCY22, 3-(((4-fluorobenzyl)amino)((5-nitrofuran-2-yl)methoxy)phosphoryl)-2-oxopiperidin-1-yl acetate]: the IC50 in data set [1] (setting [7]) was found to be 933 nM; in data set [1] (setting [9]) it was 540 nM.
